Measured values taken from PubChem BioAssay AID298 (DTP/NCI, 2004).
“And” between values parts separate entries of the source, which are not always exact repeats. Equal entries are not always repeated. Results filed as inconclusive are left out.

System: MX-1 breast xenograft, intrarenal, nude mice, tumor weight
Experiment: NCI In Vivo Anticancer Drug Screen. Data for tumor model Human Mammary Carcinoma MX-1 Xenograft (intrarenal inoculation) in NU/NU BALB/C (nude) mice
Details: endpoint: mean tumor weight change, higher = larger tumour
In short: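 T/C readout: treated-group measurement over vehicle-control measurement, using tumor size or survival in tumor-bearing mice.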

[1] = dose: 100.0 mg/kg/injection, schedule: Q04DX003 (ip), vehicle: saline with Tween-80
[2] = dose: 200.0 mg/kg/injection, schedule: Q04DX003 (ip), vehicle: saline with Tween-80
[3] = dose: 120.0 mg/kg/injection, schedule: Q04DX003 (ip), vehicle: saline with Tween-80
[4] = dose: 75.0 mg/kg/injection, schedule: Q04DX003 (ip), vehicle: Klucel (hydroxypropylcellulose) (HPC)
[5] = dose: 150.0 mg/kg/injection, schedule: Q04DX003 (ip), vehicle: Klucel (hydroxypropylcellulose) (HPC)

Q: For CC(=O)/C(=C\c1ccc(/C=C(\C(C)=O)C(=O)CCN(C)C)cc1)C(=O)CCN(C)C, which T/C [1] is on record?
A: 122 % of control

Q: What about the T/C [2] of the same molecule?
A: 90 % of control

Q: Which results are given for Cn1c(=S)sc2nc3ccccc3n2c1=S?
A: T/C (dose: 30.0 mg/kg/injection, schedule: Q04DX003 (ip), vehicle: saline with Tween-80): 165 % of control; T/C [3]: 42 % of control

Q: For CCc1nc(N)nc(N)c1-c1ccc(Cl)c(N=[N+]=[N-])c1, which T/C (dose: 67.0 mg/kg/injection, schedule: Q04DX003 (ip), vehicle: water) is on record?
A: 85 % of control

Q: Which T/C (dose: 25.0 mg/kg/injection, schedule: Q04DX003 (ip), vehicle: DMSO) does the source give for O=C1C=CC2OC(c3ccccc3)C(O)C2O1 (stereo not drawn) here?
A: 114 % of control

Q: And the T/C (dose: 50.0 mg/kg/injection, schedule: Q04DX003 (ip), vehicle: DMSO)?
A: 40 % of control

Q: For NS(=O)(=O)OCCCCCCCOS(N)(=O)=O, which T/C (dose: 150.0 mg/kg/injection, schedule: Q04DX003 (ip), vehicle: saline with Tween-80) is on record?
A: -40 % of control

Q: For O=C(Nc1cccnc1)c1ccc([N+](=O)[O-])s1, which T/C (dose: 50.0 mg/kg/injection, schedule: Q04DX003 (ip), vehicle: saline) is on record?
A: 92 % of control

Q: What about the T/C (dose: 100.0 mg/kg/injection, schedule: Q04DX003 (ip), vehicle: saline) of the same molecule?
A: 81 % of control and 90 % of control

Q: What about the T/C (dose: 200.0 mg/kg/injection, schedule: Q04DX003 (ip), vehicle: saline) of the same molecule?
A: 92 % of control and 103 % of control

Q: And the T/C (dose: 400.0 mg/kg/injection, schedule: Q04DX003 (ip), vehicle: saline)?
A: 80 % of control

Q: And the T/C (dose: 800.0 mg/kg/injection, schedule: Q04DX003 (ip), vehicle: saline)?
A: 105 % of control

Q: What does the source list for CCOC(=O)c1ccc(NN=NCCF)cc1?
A: T/C (dose: 150.0 mg/kg/injection, schedule: Q04DX003 (ip), vehicle: distilled water + Tween-80 + alcohol): 99 % of control; T/C (dose: 300.0 mg/kg/injection, schedule: Q04DX003 (ip), vehicle: distilled water + Tween-80 + alcohol): 89 % of control; T/C (dose: 600.0 mg/kg/injection, schedule: Q04DX003 (ip), vehicle: distilled water + Tween-80 + alcohol): 84 % of control; T/C (dose: 1200.0 mg/kg/injection, schedule: Q04DX003 (ip), vehicle: distilled water + Tween-80 + alcohol): 49 % of control

Q: Which results are given for C=Cc1cc(OC)c2c(c1)c(=O)oc1c2cc(OC)c2c(O)ccc(C3OC(C)C(O)C(C)(O)C3O)c21 (stereo not drawn)?
A: T/C (dose: 37.5 mg/kg/injection, schedule: Q04DX003 (ip), vehicle: DMSO): 95 % of control; T/C (dose: 75.0 mg/kg/injection, schedule: Q04DX003 (ip), vehicle: DMSO): 86 % of control; T/C (dose: 150.0 mg/kg/injection, schedule: Q04DX003 (ip), vehicle: DMSO): 79 % of control; T/C (dose: 300.0 mg/kg/injection, schedule: Q04DX003 (ip), vehicle: DMSO): 64 % of control

Q: Which results are given for COc1cc2c(c3c1c(=O)c1ccccc1n3C)C=CC(C)(C)O2?
A: T/C (dose: 37.5 mg/kg/injection, schedule: Q04DX003 (ip), vehicle: Klucel (hydroxypropylcellulose) (HPC)): 54 % of control; T/C [4]: 40 % of control; T/C [5]: 21 % of control

Q: Which T/C (dose: 300.0 mg/kg/injection, schedule: Q04DX003 (sc), vehicle: Klucel (hydroxypropylcellulose) (HPC)) does the source give for CC1=CC(=Nc2ccc(N(CCCl)CCCl)cc2)C=C(C)C1=O here?
A: -11 % of control

Q: And the T/C (dose: 600.0 mg/kg/injection, schedule: Q04DX003 (sc), vehicle: Klucel (hydroxypropylcellulose) (HPC))?
A: -12 % of control

Q: What about the T/C (dose: 1200.0 mg/kg/injection, schedule: Q04DX003 (sc), vehicle: Klucel (hydroxypropylcellulose) (HPC)) of the same molecule?
A: 1 % of control

Q: And the T/C (dose: 2400.0 mg/kg/injection, schedule: Q04DX003 (sc), vehicle: Klucel (hydroxypropylcellulose) (HPC))?
A: -20 % of control

Q: Which results are given for COc1cc(C(CC(C)=O)c2cc3c(cc2OC(C)=O)OCO3)cc(OC)c1OC (stereo not drawn) (tested in a mixture with another compound)?
A: T/C (dose: 50.0 mg/kg/injection, schedule: Q04DX003 (ip), vehicle: saline with Tween-80): 59 % of control; T/C (dose: 72.0 mg/kg/injection, schedule: Q04DX003 (ip), vehicle: saline with Tween-80): 103 % of control; T/C [1]: 34 % of control; T/C [3]: 110 % of control; T/C [2]: 19 % of control and 20 % of control

Q: What does the source list for C=CC(C)(C)n1cc(C2=C(O)C(=O)C(c3cn(C(C)(C)C=C)c4ccccc34)=C(O)C2=O)c2ccccc21?
A: T/C (dose: 50.0 mg/kg/injection, schedule: Q04DX003 (sc), vehicle: Klucel (hydroxypropylcellulose) (HPC)): 80 % of control; T/C (dose: 100.0 mg/kg/injection, schedule: Q04DX003 (sc), vehicle: Klucel (hydroxypropylcellulose) (HPC)): 96 % of control; T/C (dose: 200.0 mg/kg/injection, schedule: Q04DX003 (sc), vehicle: Klucel (hydroxypropylcellulose) (HPC)): 76 % of control; T/C (dose: 400.0 mg/kg/injection, schedule: Q04DX003 (sc), vehicle: Klucel (hydroxypropylcellulose) (HPC)): 74 % of control

Q: With CS(=O)(=O)c1ncc(Br)cn1 as the molecule, how does the T/C (dose: 25.0 mg/kg/injection, schedule: Q01DX010 (sc), vehicle: distilled water + Tween-80) read?
A: 98 % of control

Q: And the T/C (dose: 200.0 mg/kg/injection, schedule: Q01DX010 (sc), vehicle: distilled water + Tween-80)?
A: 118 % of control

Q: What does the source list for O=C1[C@@H]2C3C=CC([C@H]4C(=O)N(CO)C(=O)[C@@H]34)[C@@H]2C(=O)N1CO?
A: T/C (dose: 100.0 mg/kg/injection, schedule: Q04DX003 (ip), vehicle: Klucel (hydroxypropylcellulose) (HPC)): 78 % of control; T/C (dose: 200.0 mg/kg/injection, schedule: Q04DX003 (ip), vehicle: Klucel (hydroxypropylcellulose) (HPC)): 52 % of control

Q: With Nc1nc(=S)c2[nH]cnc2[nH]1 as the molecule, how does the T/C (dose: 1.6 mg/kg/injection, schedule: Q01DX010 (sc), vehicle: Klucel (hydroxypropylcellulose) (HPC)) read?
A: 50 % of control

Q: Which T/C (dose: 200.0 mg/kg/injection, schedule: Q04DX003 (sc), vehicle: saline) does the source give for O=[N+]([O-])O.[Ga] here?
A: 61 % of control

Q: What about the T/C (dose: 400.0 mg/kg/injection, schedule: Q04DX003 (sc), vehicle: saline) of the same molecule?
A: 67 % of control

Q: What about the T/C (dose: 800.0 mg/kg/injection, schedule: Q04DX003 (sc), vehicle: saline) of the same molecule?
A: 81 % of control

Q: And the T/C (dose: 1600.0 mg/kg/injection, schedule: Q04DX003 (sc), vehicle: saline)?
A: 74 % of control

Q: Which results are given for CN(Cc1cnc2nc(N)nc(N)c2n1)c1ccc(C(=O)NC(CCC(=O)OC(C)(C)C)C(=O)O)cc1 (stereo not drawn)?
A: T/C (dose: 25.0 mg/kg/injection, schedule: Q03HX015 (ip), vehicle: sodium bicarbonate): 62 % of control; T/C (dose: 50.0 mg/kg/injection, schedule: Q03HX015 (ip), vehicle: sodium bicarbonate): 110 % of control; T/C (dose: 100.0 mg/kg/injection, schedule: Q03HX015 (ip), vehicle: sodium bicarbonate): 54 % of control; T/C (dose: 200.0 mg/kg/injection, schedule: Q03HX015 (ip), vehicle: sodium bicarbonate): 116 % of control

Q: Which T/C (dose: 50.0 mg/kg/injection, schedule: Q01DX010 (ip), vehicle: saline with Tween-80) does the source give for Cc1ccoc1 here?
A: 102 % of control

Q: What about the T/C (dose: 100.0 mg/kg/injection, schedule: Q01DX010 (ip), vehicle: saline with Tween-80) of the same molecule?
A: 97 % of control

Q: And the T/C (dose: 200.0 mg/kg/injection, schedule: Q01DX010 (ip), vehicle: saline with Tween-80)?
A: 104 % of control

Q: What does the source list for CCOC(=O)NC1=C(N2CC2)C(=O)C(NC(=O)OCC)=C(N2CC2)C1=O?
A: T/C (dose: 1.56 mg/kg/injection, schedule: Q01DX010 (sc), vehicle: saline): 45 % of control; T/C (dose: 3.13 mg/kg/injection, schedule: Q01DX010 (sc), vehicle: saline): 13 % of control; T/C (dose: 6.25 mg/kg/injection, schedule: Q01DX010 (sc), vehicle: saline): -75 % of control

Q: C=CCOc1cc2c(cc1C(C)c1ccc(OC)cc1)OCO2 (stereo not drawn) was tested. Which T/C [4] did it give?
A: 73 % of control

Q: And the T/C [5]?
A: 91 % of control

Q: What about the T/C (dose: 300.0 mg/kg/injection, schedule: Q04DX003 (ip), vehicle: Klucel (hydroxypropylcellulose) (HPC)) of the same molecule?
A: 94 % of control

Q: Cc1c(-c2ccc(-c3ccccc3F)cc2)nc2ccc(F)cc2c1C(=O)O was tested. Which T/C (dose: 6.9 mg/kg/injection, schedule: Q01DX009 (ip), vehicle: water) did it give?
A: 15 % of control and 19 % of control

Q: What about the T/C (dose: 11.5 mg/kg/injection, schedule: Q01DX009 (ip), vehicle: water) of the same molecule?
A: 8 % of control and 18 % of control

Q: And the T/C (dose: 19.2 mg/kg/injection, schedule: Q01DX009 (ip), vehicle: water)?
A: 2 % of control and 12 % of control

Q: What about the T/C (dose: 32.0 mg/kg/injection, schedule: Q01DX009 (ip), vehicle: water) of the same molecule?
A: 6 % of control and 9 % of control

Q: How did the T/C (dose: 0.5 mg/kg/injection, schedule: Q04DX003 (ip), vehicle: Klucel (hydroxypropylcellulose) (HPC)) turn out when COC(=O)C12OCC34C(CC5C(C)C6=CC(=O)OC6=CC5(C)C3C(O)C1O)OC(=O)C(O)C24 (stereo not drawn) was run?
A: 75 % of control

Q: And the T/C (dose: 1.0 mg/kg/injection, schedule: Q04DX003 (ip), vehicle: Klucel (hydroxypropylcellulose) (HPC))?
A: 77 % of control

Q: And the T/C (dose: 2.0 mg/kg/injection, schedule: Q04DX003 (ip), vehicle: Klucel (hydroxypropylcellulose) (HPC))?
A: 69 % of control

Q: And the T/C (dose: 4.0 mg/kg/injection, schedule: Q04DX003 (ip), vehicle: Klucel (hydroxypropylcellulose) (HPC))?
A: 45 % of control

Q: How did the T/C (dose: 60.0 mg/kg/injection, schedule: Q04DX003 (ip), vehicle: saline) turn out when CCN(CC)CC(C)(C)C(=O)/C=C/c1ccc(/C=C/C(=O)C(C)(C)CN(CC)CC)cc1 was run?
A: 67 % of control
